Data set [1] addresses T1, Tyrosinase (Agaricus bisporus, UniProt C7FF04).
T1 construct: purchased Sigma; host or cells: natural source: mushrooms
The data set is described as follows: Test for inhibitory effect on tyrosinase activity (dopachrome absorbance at 475 nm). The data set is classed as biochemical, mushrooms. To be noted: L-tyrosine substrate, 10 min at 37° C.; for inhibition at 50 µM / inhibition at 100 µM: read-out: Tyrosinase activity inhibition rate (%).

Data set [2] concerns B16F1 melanoma cells. The data set is described as follows: Test for inhibitory effect on melanin production. To be noted: sample 50 uM, incubated for 2 days; for inhibition at 50 µM: Mus musculus, B16-F1, 48 h, read-out: Melanin production inhibition rate (%). The data set is classed as cell-based. Here is the method:
Inhibitory effect on melanin formation was measured using B16F1 melanoma cells. B16F1 melanoma cells were inoculated into a 6-well plate at a density of 3×10^5 (cells/well) with DMEM containing 10% FBS. […] After 2 days, the medium was removed and the cells were washed with PBS (phosphate buffered saline), treated with trypsin, and then retrieved. The retrieved cells were centrifuged and the supernatant was discarded. Intracellular melanin was obtained by treating the cells with 0.2 ml of 1N NaOH+10% DMSO solution. The collected cells were transferred to a 96-well plate and absorbance was measured at 490 nm. The amount of intracellular melanin was estimated using standard curve with synthetic melanin as a standard substance. The amount of protein was quantified via absorbance measurement using a protein assay reagent. For the amount of melanin produced, the amount of melanin for a given protein was estimated.

Data set [3] concerns skin. To be noted: in vivo.

T1 sequence (C7FF04 1-392 limits assumed): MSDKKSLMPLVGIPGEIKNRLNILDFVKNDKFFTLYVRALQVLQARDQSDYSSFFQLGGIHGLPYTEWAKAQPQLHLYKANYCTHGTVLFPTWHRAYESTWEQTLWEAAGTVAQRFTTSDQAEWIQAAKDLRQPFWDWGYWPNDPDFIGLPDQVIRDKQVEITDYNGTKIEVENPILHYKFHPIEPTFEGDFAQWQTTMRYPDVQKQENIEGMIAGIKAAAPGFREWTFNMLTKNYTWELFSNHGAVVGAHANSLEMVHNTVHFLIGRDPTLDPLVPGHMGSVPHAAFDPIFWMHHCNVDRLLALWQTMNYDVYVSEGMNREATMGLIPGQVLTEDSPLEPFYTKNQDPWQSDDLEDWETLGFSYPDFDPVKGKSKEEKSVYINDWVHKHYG

For orientation: inhibition means how much of the control response was suppressed. `OC[C@H]1O[C@@H](Oc2ccc(O)cc2)[C@H](O)[C@@H](O)[C@@H]1O` [Arbutin]: the inhibition at 50 µM in data set [1] (sample 50 uM) was found to be 9.2%; in data set [2], 18%. Further, the inhibition at 100 µM in data set [1] (sample 100 uM) turned out to be 14.4%.

Regarding `CC(C)C[C@H](NC(=O)/C=C/c1ccc(O)c(O)c1)C(=O)NCC(N)=O` [Caffeic acid-LG-NH2, Caffeic acid-Leu-Gly-NH2], the “Tyrosinase activity inhibition rate (%)” value came out at 24.2% in data set [1] (sample 50 uM) and 26.8% in data set [1] (sample 100 uM). Also, in data set [2], the “Melanin production inhibition rate (%)” value was found to be 41%. Besides, the Degree of irritation result in data set [3] is given as “None”. In data set [3], the “Skin irritation” value is recorded as “no irritation”.

For `O=C(O)/C=C/c1ccc(O)c(O)c1` [Caffeic acid], the inhibition at 100 µM in data set [1] (sample 100 uM) was found to be 21.3%. In data set [2], the inhibition at 50 µM was 16%.

For the molecule `CC(C)C[C@H](NC(=O)/C=C/c1ccc(O)cc1)C(=O)NCC(N)=O` [Coumaric acid-LG-NH2, Coumaric acid-Leu-Gly-NH2], the “Tyrosinase activity inhibition rate (%)” value in data set [1] (sample 50 uM) turned out to be 25.1%; in data set [1] (sample 100 uM), 34.8%. In addition, the “Melanin production inhibition rate (%)” value in data set [2] is 45.3%. Moreover, the Degree of irritation result in data set [3] is “None”. For the same molecule, in data set [3], the “Skin irritation” value is “no irritation”.

On to `O=C(O)/C=C/c1ccc(O)cc1` [Coumaric acid], for which the inhibition at 50 µM is 21.3% in data set [1] (sample 50 uM) and 23% in data set [2]. In addition, the inhibition at 100 µM in data set [1] (sample 100 uM) was found to be 24.6%.

These data come from patent US20140056835A1, “COSMETIC COMPOSITION FOR SKIN WHITENING COMPRISING SMALL MOLECULE-PEPTIDE CONJUGATE” (AE KYUNG INDUSTRIAL CO., LTD., priority 2012, published 2014).
